The text below walks through data of paper PMC3915196, “Asymmetric Synthesis of Spirocyclic 2-Benzopyrans for Positron Emission Tomography of σ1 Receptors in the Brain” (Pharmaceuticals, 2014).

Like-named read-outs stand apart in the source and are kept apart here. Marks after values point to notes of the source that are not given here. Bounds are passed on as bounds.

For data set [1], the target named is T1, σ1 receptor (Cavia porcellus, UniProt Q60492).
T1 construct: five guinea pig brains were homogenized with the Potter; tissue Harlan-Winkelmann, Borchen, Germany; host or cells: guinea pig brain (cortex) membrane homogenate
The data set is described as follows: σ1 receptor binding assay with [3H]-(+)-pentazocine. More on the design: species or system guinea pig.

Another data set has as its target T2, σ2 receptor (Rattus norvegicus, UniProt Q5U3Y7).
T2 construct: two rat livers were cut into small pieces and homogenized with the Potter; tissue Harlan-Winkelmann, Borchen, Germany; host or cells: rat liver membrane homogenate
T2 sequence (Q5U3Y7 1-176): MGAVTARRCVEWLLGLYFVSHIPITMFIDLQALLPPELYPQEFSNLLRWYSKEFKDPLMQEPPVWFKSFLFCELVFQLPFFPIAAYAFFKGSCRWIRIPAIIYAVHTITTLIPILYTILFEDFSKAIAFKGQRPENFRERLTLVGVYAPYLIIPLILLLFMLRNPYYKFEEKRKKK
Briefly: σ2 receptor binding assay with [3H]DTG, σ1 sites masked with (+)-pentazocine. The following applies: for inhibition at 1 µM: read-out: Inhibition of radioligand binding (σ2).

Data set [2] addresses T3, σ1 receptors in the brain (Mus musculus, UniProt O55242).
T3 construct: tissue Medizinisch-Experimentelles Zentrum, Universität Leipzig; host or cells: brain of female CD1 mice (in vivo / ex vivo autoradiography)
Set-up: method as in PMID 21072511. The following applies: 30 min after injection, 18F-labeled tracer; cited from earlier work.

The conditions of data set [3]: cited from earlier work.
The conditions of data set [4]: phosphate buffer, Dulbecco buffer and native mouse plasma over 30 min at 37 °C.
Procedure: For pharmacological characterization of the radiotracer [^18F]-(R)-20, chemical stability was investigated in vitro in different buffer systems over 2 h at 40 °C: 50 mM phosphate buffer (pH 7.2), phosphate-saline-solution (Dulbecco; pH 7.2) and 0.01 M TRIS-HCl (pH 7.4).
The conditions of data set [5]: female, CD1, mouse, in vivo.
In data set [6] the target is T3, σ1 receptors in the brain. Briefly: Brain uptake and ex vivo autoradiography under control and haloperidol blocking conditions. The data set is classed as in vivo. Here is the method:
The experimental protocols were approved by the local ethics committee and conducted according to the national and EU regulations for animal research. Female CD1 mice (10–12 weeks old, 33.8 ± 6.2 g) were obtained from the Medizinisch-Experimentelles Zentrum, Universität Leipzig and housed under a 12 h/12 h light/dark cycle with free access to food and water for at least 24 h before experiments. Animals were sacrificed by CO2 asphyxiation after anaesthesia with O2/CO2 mixture.
The tracer distribution in the brain under control and blocking conditions was determined by ex vivo autoradiography studies. […] Animals were sacrificed at 30 min p.i. Blood was collected by heart puncture, the brain quickly removed and transferred on ice, and all samples were weighed. Radioactivity in brain and plasma samples was counted using an automated γ-counter and expressed as percentage of injected dose per gram (%ID/g). For autoradiography, the brain hemispheres were frozen immediately after isolation in 2-methylbutane (Carl Roth, Karlsruhe, Germany) at −30 °C (>2 min). Serial sagittal slices of 12 µm thickness were cut on a cryostat (Microm, Walldorf, Germany) from approx. midline, +500 µm, +1,000 µm and +1,500 µm. Slices were exposed overnight on an imaging plate (SR 2025, Fuji, Tokyo, Japan), scanned afterwards with a high-resolution phosphorimager (HD-CR 35 Bio, raytest). 2D densitometry of the whole brain was performed with AIDA software (raytest).

For data set [7] the following is noted: HPLC calibration; cited from earlier work.
Data set [8] addresses T1, σ1 receptor. The following applies: earlier 2-benzofuran tracers, quoted for comparison, no reference printed at the values; cited from earlier work.
Setting [9] is: rat liver membranes, [3H]DTG, read-out: Ki ± SEM σ2.
Setting [10] is: at a concentration of 1 µM, rat liver membranes, [3H]DTG.
[11] abbreviates: established PET tracers, quoted for comparison, no reference given.

T1 sequence (Q60492 whole entry): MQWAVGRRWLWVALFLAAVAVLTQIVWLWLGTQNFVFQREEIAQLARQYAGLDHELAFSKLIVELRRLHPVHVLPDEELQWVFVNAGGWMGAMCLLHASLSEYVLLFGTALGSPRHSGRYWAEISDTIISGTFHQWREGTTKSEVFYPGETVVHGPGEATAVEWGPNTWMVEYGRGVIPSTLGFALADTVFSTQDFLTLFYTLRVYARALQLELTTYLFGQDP
T3 sequence (O55242 whole entry): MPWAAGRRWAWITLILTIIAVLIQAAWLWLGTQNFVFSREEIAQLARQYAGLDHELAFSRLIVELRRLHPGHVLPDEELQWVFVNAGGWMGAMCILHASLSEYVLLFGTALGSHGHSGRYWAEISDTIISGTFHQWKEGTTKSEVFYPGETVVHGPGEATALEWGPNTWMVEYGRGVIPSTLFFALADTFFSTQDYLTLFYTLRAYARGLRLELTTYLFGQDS

As to `O[C@H]1COC2(CCN(Cc3ccccc3)CC2)c2ccccc21`, the melting point stood at 55 °C.

With `O[C@@H]1COC2(CCN(Cc3ccccc3)CC2)c2ccccc21`, the melting point was 53 °C.

Compound `CC(C)(C)OC(=O)N1CCC2(CC1)OC[C@H](O)c1ccccc12` [(R)-11, tert-Butyl (R)-4-hydroxy-3,4-dihydrospiro[[2]benzopyran-1,4′-piperidine]-1′-carboxylate] had a melting point of 161 °C. Also, the Ki at σ1 receptor [1] (guinea pig brain membranes, [3H]-(+)-pentazocine, three independent experiments, read-out: Ki ± SEM σ1) amounted to 5.2 ± 0.3 nM. Also, on σ1 receptor [1] (ratio of σ2 and σ1 Ki values), the “Selectivity σ1/σ2” value was 413. Further, the Ki on σ2 receptor (setting [9]) was determined as 2150 nM.

Regarding `CO[C@H]1COC2(CCN(Cc3ccccc3)CC2)c2ccccc21` [(R)-15, (R)-1′-Benzyl-4-methoxy-3,4-dihydrospiro[[2]benzopyran-1,4′-piperidine]], on σ1 receptor [1], the Ki was found to be 1.2 ± 0.3 nM, the “Selectivity σ1/σ2” value is recorded as 958 and the “eudismic ratio (σ1 affinity)” value stood at 7. Also, at σ2 receptor (setting [9]), the Ki is 1150 nM.

On to `CCO[C@H]1COC2(CCN(Cc3ccccc3)CC2)c2ccccc21` [(R)-16, (R)-1′-Benzyl-4-ethoxy-3,4-dihydrospiro[[2]benzopyran-1,4′-piperidine]], for which, on σ1 receptor [1], the Ki is 5 ± 1.2 nM and the “Selectivity σ1/σ2” value amounted to 191. Further, the Ki on σ2 receptor was found to be 954 nM.

Turning to `CCOC(=O)CO[C@H]1COC2(CCN(Cc3ccccc3)CC2)c2ccccc21` [(R)-18, Ethyl (R)-2-[(1′-benzyl-3,4-dihydrospiro[[2]benzopyran-1,4′-piperidin]-4-yl)oxy]acetate], at σ1 receptor [1], the Ki came out at 4 ± 0.8 nM, the “Selectivity σ1/σ2” value was determined as 138 and the “eudismic ratio (σ1 affinity)” value is listed as 29. The affinity on σ2 receptor corresponds to a Ki of 552 nM.

As for `OCCO[C@H]1COC2(CCN(Cc3ccccc3)CC2)c2ccccc21` [(R)-19, (R)-2-[(1′-Benzyl-3,4-dihydrospiro[[2]benzopyran-1,4′-piperidin]-4-yl)oxy]ethanol], on σ1 receptor [1], affinity was put at a Ki of 55 ± 1 nM and the “Selectivity σ1/σ2” value is on record as more than 15. The inhibition at 1 µM at σ2 receptor (setting [10]) stood at 0%.

As to `FCCO[C@H]1COC2(CCN(Cc3ccccc3)CC2)c2ccccc21` [(R)-20, (R)-1′-Benzyl-4-(2-fluoroethoxy)-3,4-dihydrospiro[[2]benzopyran-1,4′-piperidine]], at σ1 receptor [1], affinity was put at a Ki of 4.7 ± 0.7 nM and the “Selectivity σ1/σ2” value is more than 210. Further, the inhibition at 1 µM on σ2 receptor (setting [10]) worked out at 14%.

As for `CO[C@@H]1COC2(CCN(Cc3ccccc3)CC2)c2ccccc21` [(S)-15, (S)-1′-Benzyl-4-methoxy-3,4-dihydrospiro[[2]benzopyran-1,4′-piperidine]], on σ1 receptor [1], the Ki was found to be 8.8 ± 1.1 nM and the “Selectivity σ1/σ2” value is 77. Besides, at σ2 receptor (setting [9]), the Ki is 676 nM.

With `CCO[C@@H]1COC2(CCN(Cc3ccccc3)CC2)c2ccccc21` [(S)-16, (S)-1′-Benzyl-4-ethoxy-3,4-dihydrospiro[[2]benzopyran-1,4′-piperidine]], at σ1 receptor [1], the Ki was 4.2 ± 0.8 nM and the “Selectivity σ1/σ2” value is listed as more than 235. The inhibition at 1 µM at σ2 receptor was found to be 31%.

Consider `CCOC(=O)CO[C@@H]1COC2(CCN(Cc3ccccc3)CC2)c2ccccc21` [(S)-18, Ethyl (S)-2-[(1′-benzyl-3,4-dihydro-3,4-dihydrospiro[2-benzopyran-1,4′-piperidin]-4-yl)oxy]acetate], for which, at σ1 receptor [1], the affinity corresponds to a Ki of 114 nM and the “Selectivity σ1/σ2” value is more than 5. The inhibition at 1 µM on σ2 receptor was determined as 12%.

Consider `OCCO[C@@H]1COC2(CCN(Cc3ccccc3)CC2)c2ccccc21` [(S)-19, (S)-2-[(1′-Benzyl-3,4-dihydrospiro[[2]benzopyran-1,4′-piperidin]-4-yl)oxy]ethanol], for which, on σ1 receptor [1], the Ki was 64 ± 0.9 nM and the “Selectivity σ1/σ2” value was more than 15. In addition, the inhibition at 1 µM at σ2 receptor (setting [10]) stood at 0%.

As for `FCCO[C@@H]1COC2(CCN(Cc3ccccc3)CC2)c2ccccc21` [(S)-20, (S)-1′-Benzyl-4-(2-fluoroethoxy)-3,4-dohydrospiro[[2]benzopyran-1,4′-piperidine]], on σ1 receptor [1], the affinity corresponds to a Ki of 5.9 ± 2.9 nM and the “Selectivity σ1/σ2” value is on record as more than 170. Also, the inhibition at 1 µM at σ2 receptor (setting [10]) worked out at 10%.

For `FCCCCC1OC2(CCN(Cc3ccccc3)CC2)c2ccccc21` (stereo not drawn) [Compound 2d], the total-to-nonspecific binding ratio result in [2] is listed as “approx. 3”.

Regarding `FCCC1OC2(CCN(Cc3ccccc3)CC2)c2ccccc21` (stereo not drawn) [[^18F]2b], in [3] (mouse, in vivo), the “parent compound in liver samples” value is 69% and the “unchanged parent compound in plasma” value is reported as 89%. For the same compound, in data set [2], the total-to-nonspecific binding ratio result is “approx. 3”.

Take `[18F]CCCC1OC2(CCN(Cc3ccccc3)CC2)c2ccccc21` (stereo not drawn) [[^18F]2c]: in data set [3] (setting [11]), the “parent compound in liver samples” value was 65% and the “unchanged parent compound in plasma” value is 86%.

Compound `[18F]CCO[C@H]1COC2(CCN(Cc3ccccc3)CC2)c2ccccc21` [[^18F]-(R)-20] had a Ki at σ1 receptor [1] of 4.7 nM. The defluorination entry in data set [4] is “No defluorination was observed”. The “non-metabolized radiotracer of total radioactivity in urine” value in data set [5] (0.5 h) is given as 2-20%. Also, the “unchanged parent radiotracer in liver” value in data set [5] (30 min) is approximately 56%. For the same compound, the “mean decrease of radiotracer uptake in slices of the whole brain hemisphere with haloperidol” value in [6] (2D densitometry of ex vivo autoradiographs) is “about 40%”. For the same compound, in [6] (mouse brain, 30 min p.i.), the total-to-nonspecific binding ratio came to 1.5. Further, the “uptake of radioactivity in the brain” value in data set [6] (mouse, 30 min p.i., blocking conditions, co-application of 1 mg/kg haloperidol) is given as 2.24 % ID/g; in data set [6] (mouse, 30 min p.i., control conditions), 3.4 % ID/g. For the same compound, in [6] (mouse, 30 min p.i., from %ID/g values), the “reduction of brain uptake by haloperidol co-application” value is given as 34%.

As to `Clc1ccccc1` [chlorobenzene], the “logD of reference compounds used for calibration” value (“logD of reference compounds used” below) in data set [7] was 2.8.

With `c1ccc2c(c1)-c1cccc3cccc-2c13` [fluoranthene], the “logD of reference compounds used” value in [7] is on record as 5.1.

For the compound `FCCC1OC2(CCN(Cc3ccccc3)CC2)c2ccccc21` (stereo not drawn) [fluspidine], on σ1 receptor [8], the Ki is 0.59 nM.

Turning to `c1ccc2ccccc2c1` [naphthalene], the “logD of reference compounds used” value in [7] is 3.6.

Regarding “tert-Butyl (S)-4-hydroxy-3,4-dihydrospiro[[2]benzopyran-1,4′-piperidine]-1′-carboxylate [(S)-11]”, on σ1 receptor [1], the “Selectivity σ1/σ2” value is given as more than 55. Moreover, the Ki on σ1 receptor [1] (read-out: Ki ± SEM σ1) worked out at 18 ± 5 nM. In addition, the “Inhibition of radioligand binding (σ2)” value on σ2 receptor (1 µM) was found to be 24% *.
